Laboratory results taken from patent publication US8674113B2, “Compounds” (Boehringer Ingelheim International GmbH, priority 2010, dated 2014).

These compounds were tested against mPGES-1 in A549 cells (Homo sapiens (Human), UniProt O14684) (assay: A549 cell-based assay (PGE2 formation, 50% human serum)). Details: IL-1β 5 ng/ml, 10 nM arachidonic acid, 20-24 h, read-out: mPGES-1 inhibitory effect IC50 in the cell assay.
Procedure: Although the enzymatic assay is a high throughput assay the disadvantage is that it uses a recombinant protein which is not in its natural environment. Accordingly a cellular assay was established in which a cell line of human origin (A549) expressing the mPGES-1 protein was used. In addition in order to mimic the situation in humans in which compounds can be bound to plasma proteins 50% human serum is added in the assay.
A549 cells (ATCC: CCL-185) are grown to about 90% confluence in F-12K Nutrient Mixture (Kaighn's Mod. Gibco) containing 10% FBS in a humified incubator at 37° C. and 5% CO2. Cells were detached using Trypsin-EDTA. A549 cells were seeded in a 384-well collagene plate at a density of 7000 cells/well (50 μl) in F-12 medium containing 1% Penicillin-Streptomycin and 50% human serum. The cells were allowed to attach for 3-4 h. After that the cells were incubated for 20-24 h in F-12k medium supplemented with 50% human serum, 1% Penicillin-Streptomycin and containing IL-1β at a final concentration of 5 ng/ml as well as 10 nM arachidonic acid in the presence of a vehicle or a test compound. The total volume is 100 μl.
Concentrations of PGE2 in the cell free medium (10 μl) were measured using a commercially available HTRF kit from Cisbio (as described above). The PGE2 formation in the absence of test compound was taken as 100%.
IC50 values were derived from at 6-8 point titrations using conventional software.

Chain of mPGES-1 in A549 cells (O14684 whole entry): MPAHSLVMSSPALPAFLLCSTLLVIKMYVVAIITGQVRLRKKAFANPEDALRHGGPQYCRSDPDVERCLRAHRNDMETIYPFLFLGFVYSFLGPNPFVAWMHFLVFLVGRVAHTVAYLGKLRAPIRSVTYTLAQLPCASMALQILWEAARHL

| SMILES | IC50 [nM] |
| --- | --- |
| COc1cncc(C(=O)NCc2ccc(Cl)c(Nc3nc4cc(C(=O)N[C@H]5CC[C@H](C(F)(F)F)CC5)c(N5CC6CC6C5)cc4n3C)c2Cl)c1 (stereo partly drawn) [Example 200] | > 100 |
| Cn1c(Nc2c(Cl)ccc(CNC(=O)c3c(F)cncc3F)c2Cl)nc2cc(C(=O)N[C@H]3CC[C@H](C(F)(F)F)CC3)c(N3CC4CC4C3)cc21 (stereo partly drawn) [Example 201] | 6 |
| Cc1cc(C)nc(C(=O)NCc2ccc(Cl)c(Nc3nc4cc(C(=O)N[C@H]5CC[C@H](C(F)(F)F)CC5)c(N5CC6CC6C5)cc4n3C)c2Cl)c1 (stereo partly drawn) [Example 202] | 57 |
| CNc1cc(C(=O)NCc2ccc(Cl)c(Nc3nc4cc(C(=O)N[C@H]5CC[C@H](C(F)(F)F)CC5)c(N5CC6CC6C5)cc4n3C)c2Cl)ccn1 (stereo partly drawn) [Example 203] | 46 |
| COc1cccc(C(=O)NCc2ccc(Cl)c(Nc3nc4cc(C(=O)N[C@H]5CC[C@H](C(F)(F)F)CC5)c(N5CC6CC6C5)cc4n3C)c2Cl)n1 (stereo partly drawn) [Example 204] | 49 |
| Cn1c(Nc2c(Cl)ccc(CNC(=O)c3cncc(O)c3)c2Cl)nc2cc(C(=O)N[C@H]3CC[C@H](C(F)(F)F)CC3)c(N3CC4CC4C3)cc21 (stereo partly drawn) [Example 205] | > 100 |
| Cn1c(Nc2c(Cl)ccc(CNC(=O)c3cccc(CO)n3)c2Cl)nc2cc(C(=O)N[C@H]3CC[C@H](C(F)(F)F)CC3)c(N3CC4CC4C3)cc21 (stereo partly drawn) [Example 206] | 42 |
| Cn1c(Nc2c(Cl)ccc(CNC(=O)c3cc(CO)ccn3)c2Cl)nc2cc(C(=O)N[C@H]3CC[C@H](C(F)(F)F)CC3)c(N3CC4CC4C3)cc21 (stereo partly drawn) [Example 207] | 170 |
| Cn1c(Nc2c(Cl)ccc(CNC(=O)c3cccc(C#N)n3)c2Cl)nc2cc(C(=O)N[C@H]3CC[C@H](C(F)(F)F)CC3)c(N3CC4CC4C3)cc21 (stereo partly drawn) [Example 208] | 21 |
| Cn1c(Nc2c(Cl)ccc(CNC(=O)c3cc(C#N)ccn3)c2Cl)nc2cc(C(=O)N[C@H]3CC[C@H](C(F)(F)F)CC3)c(N3CC4CC4C3)cc21 (stereo partly drawn) [Example 209] | 6.5 |
| CCn1c(C(=O)NCc2ccc(Cl)c(Nc3nc4cc(C(=O)N[C@H]5CC[C@H](C(F)(F)F)CC5)c(N5CC6CC6C5)cc4n3C)c2Cl)cccc1=O (stereo partly drawn) [Example 210] | 8 |
| COc1ncccc1C(=O)NCc1ccc(Cl)c(Nc2nc3cc(C(=O)N[C@H]4CC[C@H](C(F)(F)F)CC4)c(N4CC5CC5C4)cc3n2C)c1Cl (stereo partly drawn) [Example 211] | 106 |
| Cn1c(Nc2c(Cl)ccc(CNC(=O)c3ccc(C#N)nc3)c2Cl)nc2cc(C(=O)N[C@H]3CC[C@H](C(F)(F)F)CC3)c(N3CC4CC4C3)cc21 (stereo partly drawn) [Example 212] | 1.7 |
| COc1cncc(C(=O)NCc2ccc(Cl)c(Nc3nc4cc(C(=O)N[C@H]5CC[C@H](C(F)(F)F)CC5)c(N5CC6CC6C5)cc4n3C)c2Cl)n1 (stereo partly drawn) [Example 213] | 41 |
| CNc1cncc(C(=O)NCc2ccc(Cl)c(Nc3nc4cc(C(=O)N[C@H]5CC[C@H](C(F)(F)F)CC5)c(N5CC6CC6C5)cc4n3C)c2Cl)n1 (stereo partly drawn) [Example 214] | 113 |
| Cn1c(Nc2c(Cl)ccc(CNC(=O)c3ncn[nH]3)c2Cl)nc2cc(C(=O)N[C@H]3CC[C@H](C(F)(F)F)CC3)c(N3CC4CC4C3)cc21 (stereo partly drawn) [Example 215] | > 100 |
| Cn1ccnc1C(=O)NCc1ccc(Cl)c(Nc2nc3cc(C(=O)N[C@H]4CC[C@H](C(F)(F)F)CC4)c(N4CC5CC5C4)cc3n2C)c1Cl (stereo partly drawn) [Example 216] | 27 |
| Cn1cncc1C(=O)NCc1ccc(Cl)c(Nc2nc3cc(C(=O)N[C@H]4CC[C@H](C(F)(F)F)CC4)c(N4CC5CC5C4)cc3n2C)c1Cl (stereo partly drawn) [Example 217] | > 100 |
| Cn1c(Nc2c(Cl)ccc(CNC(=O)c3cc(O)[nH]n3)c2Cl)nc2cc(C(=O)N[C@H]3CC[C@H](C(F)(F)F)CC3)c(N3CC4CC4C3)cc21 (stereo partly drawn) [Example 218] | 98 |
| Cc1cc(C(=O)NCc2ccc(Cl)c(Nc3nc4cc(C(=O)N[C@H]5CC[C@H](C(F)(F)F)CC5)c(N5CC6CC6C5)cc4n3C)c2Cl)nn1C (stereo partly drawn) [Example 219] | > 100 |
| Cn1c(Nc2c(Cl)ccc(CNC(=O)c3c[nH]cn3)c2Cl)nc2cc(C(=O)N[C@H]3CC[C@H](C(F)(F)F)CC3)c(N3CC4CC4C3)cc21 (stereo partly drawn) [Example 220] | 119 |
